Test results: publication PMC9014412 (Journal of medicinal chemistry, 2022)
Like-named read-outs stand apart in the source and are kept apart here.

Assays:
HCT116 cells [1] = test: Apoptosis flow cytometry assay (sub-G1 population); type: cell-based, human; conditions: 10 μM
Experimental: HCT116 cells were seeded (5 × 10^5 cells/plate) into 6 cm tissue culture plates for 24 h and then treated with 10 μM compounds (with 0.1% DMSO vehicle) or 0.1% DMSO control in fresh medium (5 mL total). The cells were then exposed to the compounds (10 μM) for 24 or 48 h. To harvest the cells, the medium was transferred from each sample plate to 15 mL centrifuge tubes. Each well was washed with 1 mL of phosphate-buffered saline (PBS) and the PBS was transferred to the corresponding 15 mL centrifuge tube. The plates were trypsinized, 2 mL of medium was added, and the cells and medium were transferred to the corresponding 15 mL centrifuge tubes. The harvested cells were pelleted by centrifugation (200g, 5 min, 4 °C), washed with 1 mL PBS, and then pelleted again by centrifugation (200g, 5 min, 4 °C). The supernatant was discarded, and the pellets resuspended in 1 mL of 70% ethanol (ice-cold) to fix the cells. Samples were stored at 4 °C and analyzed within two weeks. PBS (1 mL) was added to each sample tube containing cells fixed in 70% ethanol. The cells were pelleted by centrifugation (200g, 5 min, 4 °C), and the PBS wash was repeated. The supernatant was discarded, and the pellet was resuspended in 50 μL of RNase A (1 μg/mL, Thermo Scientific, EN0531) and left at room temperature for 10 min to digest contaminating RNA. A total of 500 μL of PI stain (50 μg/mL, Invitrogen, P3566) was added to each tube, and the tubes were incubated in the dark, at room temperature, for 30 min. Results were acquired on a BD FACSCanto II flow cytometer and analyzed using BD FACSdiva software. Sub-G1 population was calculated as a percentage of total cell population. Two independent biological replicates were performed.

HCT116 cells [2] = test: RNA-seq differential gene expression; type: cell-based, human; conditions: 10 μM, 24 h
Experimental: RNA-seq analysis was performed in HCT116 cells treated with PROTACs (JPS004, JPS014, JPS016, JPS035, and JPS036) for 24 h at 10 μM concentration. Total RNA was isolated using a Tri-reagent RNA miniprep kit (Zymogen; R2053), before RNA integrity, size, and purity were assessed using an Agilent Bioanalyzer. Library preparation and sequencing were performed by Novogene, using a NovaSeq 6000 PE150 platform at a read depth of 20 million. For bioinformatics analysis, see the Supporting Information. RNA-seq data from the study was deposited at the GEO database (GSE197985).
3. Apoptosis Flow Cytometry Assay
Figure S9. Apoptosis flow cytometry assay with 2.5 µM and 10 µM treatments of JPS016 and JPS016NC at 24 and 48 hours. Error bars represent the average of three independent biological replicates.
µM µM µM 5 µM µM µM µM µM µM µM
4. RNA Seq – Bioinformatics Analysis
Paired-end reads were aligned using HISAT2 (v2.2.1) and mapped to the HISAT2 GRCh38_tran index build.3 Quality control was performed on raw and aligned data using FASTQC (v0.11.9) and summarised using MultiQC (v1.11).4,5 The resulting SAM files were subsequently sorted and converted to the BAM format before indexing with SAMtools (v 1.12).6 Reads were then counted across the exons of each gene and gene loci annotated using command-line program LiBiNorm (v2.4); run in HT-Seq compatibility mode (-z) and provided with the ‘Homosapiens.GRCh38.104’ GTF file obtained from Ensembl. LiBiNorm was run using the following parameters: LiBiNorm count -z -r pos -i gene_name -s reverse <BAM file> Homo_sapiens.GRCh38.104.gtf <OUTPUT file>.7 Default normalisation of expression values and differential gene analysis was then carried out using the R package DESeq2.8 Significance thresholds were set as a p-adjusted value < 0.01 and a fold change > 2 (log2 fold change > 1) and implemented for down-stream analysis, with all plots produced in R. Gene ontology (GO) analysis was carried out using the Bioconductor package topGO using the human genome-wide annotation package to map gene identifiers to the relevant org.Hs.eg.db […]

H3K56ac = test: Histone H3 Lys 56 acetylation (H3K56ac) western blotting; type: cell-based, human; conditions: HCT116 cells, 24 h, screen at 0.1, 1, 10 μM; relative to DMSO, CI-994 and 1 at 10 μM
Source text: (§1) Supporting Information: Biology
(§2) Representative blots of two independent biological replicates.

HCT116 cells [3] = test: CellTiter-Glo 2.0 cell viability assay; type: cell-based, human
Experimental: CellTiter-Glo 2.0 Reagent (Promega UK Ltd, G9242) was equilibrated to room temperature and added to the wells in a ratio of 1 volume reagent:5 volumes medium. Background luminescence was determined using medium alone plus reagent. The plates were shaken on an orbital shaker for 2 min to induce cell lysis and then incubated in the dark at room temperature for 10 min to stabilize the luminescent signal. Luminescence was captured on a CLARIOstar plate reader (BMG Labtech Ltd, UK) at 22 °C to give relative luminescence units and analyzed using BMG Labtech software. EC50 values were calculated by nonlinear regression (Hill plot) and log (inhibitor) versus response—variable slopes (four parameters) using GraphPad Prism 9 software. Each compound dose response was repeated as four independent biological replicates (n = 4).

LSD1 = LSD1 protein levels by western blotting; type: cell-based, human; conditions: HCT116 cells, after 48 h
Experimental: as §1, §2
(§3) Figure S6. Representative Western blot of HDAC1/2/3 levels after 24 hours and 48 hours with 1
(§4) (JPS004), 7 (JPS014) and 9 (JPS016), and bar graph representation of HDAC1-3, LSD1 and Sin3a
(§5) protein levels after 24 hours and 48 hours as the average of three independent biological replicates.
(§6) (also on this page, place not known: HDAC1 24hHDAC2 24hHDAC3 24hHDAC1 48hHDAC2 48hHDAC3 %Protein Levels Remaining (Relative to DMSO) %Protein Levels Remaining (Relative to DMSO))

SIN3A = SIN3A protein levels by western blotting; type: cell-based, human; conditions: HCT116 cells, 10 μM, after 24 h
Experimental: as §1, §2, §3, §4, §5, §6

HDAC2 = HDAC2 (Homo sapiens, UniProt Q92769); test: HDAC2 degradation by quantitative western blotting in HCT116 cells; parameters: Dmax: dose or concentration left out as unconfirmed; conditions: for HDAC2 degradation in initial screen (in words): HCT116 cells, 24 h, 0.1, 1 and 10 μM, compared with 1 at 10 μM
Experimental: (§11) Initially, each PROTAC was tested at 0.1, 1, and 10 μM in HCT116 cells for 24 h; then, cell extracts were prepared and evaluated for HDAC1/2 and 3 degradation by quantitative western blotting.
(§12) This cell line was incubated at 37 °C with 5% CO2.
(§13) HCT116 cells were seeded into 6-well plates (4 × 10^5 cells/well for 24 h, 2 × 10^5 cells/well for 48 h) for 24 h and then treated with DMSO or compounds at the indicated concentrations in fresh medium (5 mL total). After desired treatment time, the cells were harvested and then lysed in lysis buffer (50 mM Tris-HCl, 150 mM NaCl, 0.5% NP-40, 0.5% Triton X-100) supplemented with a protease inhibitor (Sigma, P8340). The suspension was incubated on ice for 30 min and centrifuged (18,000 rcf, 15 min, 4 °C); then, the supernatant was collected, and protein concentrations were quantified via Bradford Assay using Protein Assay Dye Reagent Concentrate (BIO-RAD). […] PageRuler Plus Prestained Ladder was used for size standards. After gel electrophoresis at 140 V for 90 min, the separated proteins were transferred onto a nitrocellulose membrane at 30 V for 60 min. The membranes were probed with primary antibodies (see the Supporting Information) for 60−90 min. Blots were developed with complimentary IRDye-conjugated secondary antibodies, and the bands were visualized using an Odyssey infrared imaging system. Image processing and band intensity quantification were performed using Image Studio Lite.

HDAC1 = HDAC1 (Homo sapiens, UniProt Q13547); test: HDAC1 degradation by quantitative western blotting in HCT116 cells
Experimental: as §11, §12, §13

HDAC3 = HDAC3 (Homo sapiens, UniProt O15379); test: HDAC3 degradation by quantitative western blotting in HCT116 cells
Experimental: as §11, §12, §13

[4] = target: T1, HDAC2-CoREST-LSD1 complex (Homo sapiens, UniProt Q92769); test: Fluorescent HDAC assay with purified HDAC2-CoREST-LSD1 complex; type: biochemical; conditions: Boc-(Ac)Lys-AMC substrate
T1 construct: made in house
Experimental: (§7) 2. In Vitro HDAC Assay with Class I HDAC Complexes
(§8) Histone Deacetylase Assay. Inhibition experiments against HDAC1-CoREST-LSD1, HDAC2-CoREST-LSD1 and HDAC3-SMRT-DAD were conducted using a fluorescent HDAC assay. The assays were carried out utilising a black 96-well plates (Corning) with a reaction volume of 50 µL. HDAC complexes were expressed and purified as described previously.1,2 100 µM of Boc- (Ac)Lys-AMC was used as a substrate in each well. All determinations were performed in triplicate. The inhibitors/PROTACs were dissolved at 50 mM in DMSO, and then further diluted with 10% DMSO HDAC assay buffer (10% DMSO, 50 mM Tris pH 7.5, 50 mM NaCl, 0.1 mg/mL BSA) to micromolar concentrations. 1:3 serial dilutions were then carried out using 10% DMSO HDAC assay buffer to afford range of concentrations. 10 µL of each of these solutions were […]
(§9) assay buffer (50 mM Tris pH 7.5, 50 mM NaCl, 0.1 mg/mL BSA). The plate was then incubated at 20 °C, 100 RPM for 1 hour. After incubation, 10 µL of the Boc-(Ac)Lys-AMC substrate, dissolved in HDAC assay buffer, was added to each well. […] Fluorescence intensity was determined […]
(§10) IC 50 values were calculated through the GraphPad Prism 7 software by non-linear regression, log (inhibitor) vs. response – variable slope […]

HDAC3-SMRT complex = target: T2, HDAC3-SMRT complex (Homo sapiens, UniProt O15379); test: Fluorescent HDAC assay with purified HDAC3-SMRT complex; type: biochemical; conditions: Boc-(Ac)Lys-AMC substrate
T2 construct: made in house
Experimental: as §7, §8, §9, §10

[5] = target: T3, HDAC1-CoREST-LSD1 complex (Homo sapiens, UniProt Q13547); test: Fluorescent HDAC assay with purified HDAC1-CoREST-LSD1 complex; type: biochemical; conditions: Boc-(Ac)Lys-AMC substrate
T3 construct: made in house
Experimental: as §7, §8, §9, §10

[6] = p-adjusted < 0.01, log2 fold change > 1

HDAC2, sequence (Q92769 whole entry): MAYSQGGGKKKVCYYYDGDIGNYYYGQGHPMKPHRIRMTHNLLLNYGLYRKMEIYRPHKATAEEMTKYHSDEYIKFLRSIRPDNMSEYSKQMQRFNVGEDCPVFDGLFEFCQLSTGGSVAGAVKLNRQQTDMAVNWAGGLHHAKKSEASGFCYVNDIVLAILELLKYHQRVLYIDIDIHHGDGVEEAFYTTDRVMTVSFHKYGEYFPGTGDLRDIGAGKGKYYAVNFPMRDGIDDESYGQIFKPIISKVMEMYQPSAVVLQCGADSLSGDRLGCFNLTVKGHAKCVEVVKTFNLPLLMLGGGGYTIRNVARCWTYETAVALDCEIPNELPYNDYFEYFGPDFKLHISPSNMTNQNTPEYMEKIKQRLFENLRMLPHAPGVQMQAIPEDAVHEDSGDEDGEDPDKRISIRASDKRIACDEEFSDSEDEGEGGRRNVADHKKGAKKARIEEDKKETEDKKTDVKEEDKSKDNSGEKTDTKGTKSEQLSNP
HDAC1, sequence (Q13547 whole entry): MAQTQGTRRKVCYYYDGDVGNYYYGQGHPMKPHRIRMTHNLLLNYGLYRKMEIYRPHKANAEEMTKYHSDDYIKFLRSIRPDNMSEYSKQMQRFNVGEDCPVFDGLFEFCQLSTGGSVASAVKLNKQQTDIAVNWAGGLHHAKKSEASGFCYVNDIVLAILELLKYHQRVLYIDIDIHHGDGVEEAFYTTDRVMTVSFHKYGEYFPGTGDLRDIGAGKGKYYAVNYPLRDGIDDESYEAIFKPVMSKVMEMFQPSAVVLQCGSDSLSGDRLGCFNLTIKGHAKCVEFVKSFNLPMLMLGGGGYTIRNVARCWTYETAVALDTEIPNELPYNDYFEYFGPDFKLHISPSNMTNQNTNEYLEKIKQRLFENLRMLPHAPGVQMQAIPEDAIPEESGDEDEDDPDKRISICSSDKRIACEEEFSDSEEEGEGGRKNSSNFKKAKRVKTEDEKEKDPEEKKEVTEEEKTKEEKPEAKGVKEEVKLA
HDAC3, sequence (O15379 whole entry): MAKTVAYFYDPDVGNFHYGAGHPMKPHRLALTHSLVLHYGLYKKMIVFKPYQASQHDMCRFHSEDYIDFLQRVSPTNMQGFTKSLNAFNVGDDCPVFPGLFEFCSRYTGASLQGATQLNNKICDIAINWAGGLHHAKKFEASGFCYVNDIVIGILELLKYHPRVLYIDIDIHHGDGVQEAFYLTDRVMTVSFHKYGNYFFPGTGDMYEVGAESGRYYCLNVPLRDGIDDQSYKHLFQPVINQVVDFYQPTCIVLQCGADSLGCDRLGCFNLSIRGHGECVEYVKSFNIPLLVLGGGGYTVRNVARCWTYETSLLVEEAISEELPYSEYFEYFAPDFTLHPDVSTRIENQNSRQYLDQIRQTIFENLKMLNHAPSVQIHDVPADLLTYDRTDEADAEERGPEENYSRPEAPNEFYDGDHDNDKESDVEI
HDAC3, sequence (Q9Y618 389-480 partner limits assumed): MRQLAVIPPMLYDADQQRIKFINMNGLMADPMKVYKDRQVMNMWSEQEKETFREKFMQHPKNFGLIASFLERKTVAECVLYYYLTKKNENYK
T3 sequence (Q13547 whole entry, other chains not shown): as the sequence (Q13547 whole entry) above
T3 sequence (Q9UKL0 86-485 partner limits assumed, other chains not shown): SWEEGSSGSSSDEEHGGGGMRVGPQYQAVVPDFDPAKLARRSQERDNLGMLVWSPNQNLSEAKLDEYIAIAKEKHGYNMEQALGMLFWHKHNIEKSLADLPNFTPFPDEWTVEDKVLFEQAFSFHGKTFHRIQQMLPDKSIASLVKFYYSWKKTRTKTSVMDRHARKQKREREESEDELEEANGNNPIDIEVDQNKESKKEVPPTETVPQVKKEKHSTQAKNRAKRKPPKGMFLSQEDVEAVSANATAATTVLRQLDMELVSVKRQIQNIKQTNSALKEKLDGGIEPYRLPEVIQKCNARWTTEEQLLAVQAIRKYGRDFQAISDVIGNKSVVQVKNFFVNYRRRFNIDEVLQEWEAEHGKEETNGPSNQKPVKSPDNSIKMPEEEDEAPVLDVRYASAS
T2 sequence (O15379 whole entry): as the sequence (O15379 whole entry) above
T2 sequence (Q9Y618 389-480 partner limits assumed): as the sequence (Q9Y618 389-480 partner limits assumed) above
T1 sequence (Q92769 whole entry, other chains not shown): as the sequence (Q92769 whole entry) above
T1 sequence (Q9UKL0 86-485 partner limits assumed, other chains not shown): as the sequence (Q9UKL0 86-485 partner limits assumed, other chains not shown) above

EC50 (HCT116 cells [3]; Homo sapiens, HCT-116, 48 h, 48 h) [µM] | Dmax (HDAC2; HCT-116, read-out: Dmax HDAC2) [%] | Dmax (HDAC2; HCT-116, read-out: Dmax HDAC2 in time course) [%] | Dmax (HDAC1; HCT-116, read-out: Dmax HDAC1) [%] | Dmax (HDAC3; HCT-116, read-out: Dmax HDAC3) [%] | IC50 [4] [µM] | IC50 (HDAC3-SMRT complex) [µM] | IC50 [5] [nM] | Structure (SMILES) | Percentage of cells in sub-G1 phase (in words) (HCT116 cells [1]; after 24 h) | Percentage of cells in sub-G1 phase (in words) (HCT116 cells [1]; after 48 h) | Number of downregulated DEGs (HCT116 cells [2]; [6]) | Number of upregulated DEGs (HCT116 cells [2]; [6]) | H3K56ac levels (in words) (H3K56ac) | LSD1 levels (LSD1) | SIN3A levels (abundance) (SIN3A) [% abundance] | HDAC2 degradation in initial screen (in words) (HDAC2) | Fold less DEGs (HCT116 cells [2]; compared with the more potent degraders) | HDAC1 degradation in initial screen (in words) (HDAC1; HCT116 cells, 24 h, 0.1, 1 and 10 μM, compared with 1 at 10 μM) | HDAC3 dose-response behaviour (hook effect) (HDAC3; HCT116 cells, 24 h, 0.01-10 μM) | Effect on cell viability (in words) (HCT116 cells [3]; CellTiter-Glo and flow cytometry)
5.2 ± 0.6 | 45 | 51 |  |  |  |  |  | Cc1ncsc1-c1ccc(CNC(=O)[C@@H]2C[C@@H](O)CN2C(=O)[C@@H](NC(=O)COCCCCCCCCCOCC(=O)Nc2ccc(C(=O)Nc3ccccc3N)cc2)C(C)(C)C)cc1 [Compound 9, (2S,4R)-1-((S)-2-(2-((9-(2-((4-((2-Aminophenyl)carbamoyl)-phenyl)amino)-2-oxoethoxy)nonyl)oxy)acetamido)-3,3-dimethylbutanoyl)-4-hydroxy-N-(4-(4-methylthiazol-5-yl)benzyl)-pyrrolidine-2-carboxamide] | highest percentage of cells in the sub-G1 phase | highest percentage of cells in the sub-G1 phase | 1477 | 2464 | increased H3K56ac levels to the same levels as CI-994 | approximately 40 % of controls | 60 | marginally increased compared to 1 at 10 μM |  |  |  | 
 | 49 |  | 68 | 76 | 3.46 ± 0.78 | 3.81 ± 0.79 | 1810 ± 540 | CC(=O)N[C@H](C(=O)N1C[C@H](O)C[C@H]1C(=O)NCc1ccc(-c2scnc2C)cc1OCCCCCCCCCCCC(=O)Nc1ccc(C(=O)Nc2ccccc2N)cc1)C(C)(C)C [Compound 21, (2S,4R)-1-((S)-2-Acetamido-3,3-dimethylbutanoyl)-N-(2-((12-((4-((2-aminophenyl)carbamoyl)phenyl)amino)-12-oxododecyl)oxy)-4-(4-methylthiazol-5-yl)benzyl)-4-hydroxypyrrolidine-2-carboxamide] |  |  |  |  | increased H3K56ac levels significantly but not to the same levels as 1 |  |  | comparable HDAC1 and HDAC2 degradation to 1 | approximately 10 fold | comparable HDAC1 and HDAC2 degradation to 1 | exhibit a standard dose response curve for HDAC3 | little effects on cell viability
